{"source": "patent US20140018750A1", "about": "“METHOD AND DEVICE OR PHARMACEUTICAL COMPOSITIONS FOR THE TRANSDERMAL DELIVERY OF MAGNESIUM DIRECTLY TO THE NEUROMUSCULAR JUNCTION FOR THE TREATMENT OF MUSCLE CRAMPING” (priority 2012, published 2014)", "key": {"[1]": {"test_system": "sciatica", "conditions": "Patient Michael, cream composed of aloe combined with 8% by MW of magnesium sulfate"}, "[2]": {"test_system": "muscle cramping"}}}
{"smiles": "O=S(=O)([O-])[O-].[Mg+2]", "note": "[magnesium sulfate]", "values": [{"measurement": "time to relief", "setting": "[1]", "result": "six"}, {"measurement": "time to relief", "setting": "[2]; Patient Doris, reoccurring severe muscle cramps in the right foot, liquid solution, 8% by MW of magnesium sulfate, applied to the area", "result": "three"}, {"measurement": "time until began to experience relief", "setting": "[2]; Patient Henry, severe muscle cramps in the upper right arm after exertion, liquid form of 8% by MW of magnesium sulfate applied directly", "result": "three"}, {"measurement": "time to relief from both symptoms", "setting": "[2]; Patient Norma, severe leg cramps with restless leg syndrome, towel soaked in composition with 8% by MW of magnesium sulfate applied to affected area", "result": "four"}]}
